Test results reported in ChEMBL document CHEMBL1201862, “PubChem BioAssay data set” (2004).
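Results reflect a 48-hour exposure of cells in 96-well plates to compound at five concentrations. GI50 marks 50% less growth.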 Activity calls are given as the source filed them. No stated cut-off is given here; in the data, active = GI50 up to about 1.1 µM and inactive = higher.

Assays:
Experiment in all cases: inhibition of tumour cell growth, NCI panel, 48 h
[1] = test system: A549
[2] = test system: NCI-H226
[3] = test system: OVCAR-5
[4] = test system: OVCAR-8
[5] = test system: SK-MEL-2
[6] = test system: SF-539
[7] = test system: SNB-19
[8] = test system: SR
[9] = test system: OVCAR-3
[10] = test system: NCI-H460
[11] = test system: Hs-578T
[12] = test system: CCRF-CEM
[13] = test system: ACHN
[14] = test system: OVCAR-4
[15] = test system: UACC-62
[16] = test system: MDA-N
[17] = test system: 786-0
[18] = test system: EKVX
[19] = test system: LOX IMVI
[20] = test system: CAKI-1

| SMILES | GI50 [1] | GI50 [2] | GI50 [3] | GI50 [4] | GI50 [5] | GI50 [6] | GI50 [7] | GI50 [8] | GI50 [9] | GI50 [10] | GI50 [11] | GI50 [12] | GI50 [13] | GI50 [14] | GI50 [15] | GI50 [16] | GI50 [17] | GI50 [18] | GI50 [19] | GI50 [20] |
| --- | --- | --- | --- | --- | --- | --- | --- | --- | --- | --- | --- | --- | --- | --- | --- | --- | --- | --- | --- | --- |
| C=C1C(=O)OC2CC(C)C3C=CC(=O)C3CC12 (stereo not given) | 7.93 µM (inactive) | 2.64 µM (inactive) | 3.29 µM (inactive) | 2.94 µM (inactive) | 2.04 µM (inactive) | 2.08 µM (inactive) | 15.4 µM (inactive) | 0.824 µM (active) | 5.13 µM (inactive) | 2.96 µM (inactive) | 1.85 µM (inactive) | 0.428 µM (active) | 3.08 µM (inactive) | 2.95 µM (inactive) | 1.71 µM (inactive) | 2.07 µM (inactive) | 1.76 µM (inactive) | 12.1 µM (inactive) | 0.867 µM (active) | 2.17 µM (inactive) |
| Cc1cccc(NC(=O)O/N=C(\Cl)C(C)C)c1 | 20.5 µM (inactive) | 18.6 µM (inactive) | 19.4 µM (inactive) | 19.4 µM (inactive) | 17.7 µM (inactive) | 6.21 µM (inactive) | 20.3 µM (inactive) | 1.38 µM (inactive) | 6.15 µM (inactive) | 16.8 µM (inactive) | 23.1 µM (inactive) | 0.847 µM (active) | 2.02 µM (inactive) | 14 µM (inactive) | 15.9 µM (inactive) | 10.5 µM (inactive) | 2 µM (inactive) | 6.03 µM (inactive) | 1.83 µM (inactive) | 1.74 µM (inactive) |
| Nc1nn2c(nc(N)c3c(N)n[nH]c32)c1/N=N\c1ccc(Br)cc1 | > 100 µM (inactive) | 55 µM (inactive) | 23.7 µM (inactive) | 21 µM (inactive) | 12.3 µM (inactive) | 15.1 µM (inactive) | 29.9 µM (inactive) | 2.72 µM (inactive) | 32.6 µM (inactive) | > 100 µM (inactive) | 3.32 µM (inactive) | 2.1 µM (inactive) | 69.3 µM (inactive) | 16.4 µM (inactive) | > 100 µM (inactive) | 3.65 µM (inactive) | 40.9 µM (inactive) | > 100 µM (inactive) | 2.88 µM (inactive) | > 100 µM (inactive) |
| NC(=O)CCSC(CC(=O)c1ccc(Cl)cc1)c1ccc(Cl)cc1 (stereo not given) | 29.9 µM (inactive) | 36 µM (inactive) | 32.7 µM (inactive) | 16.3 µM (inactive) | 24.3 µM (inactive) | 19.7 µM (inactive) | 32.5 µM (inactive) | 4.06 µM (inactive) | 19.2 µM (inactive) | 35.9 µM (inactive) | 46.5 µM (inactive) | 2.93 µM (inactive) | 34.7 µM (inactive) | 16.8 µM (inactive) | 16.8 µM (inactive) | 16.7 µM (inactive) | 30 µM (inactive) | 28.2 µM (inactive) | 12.1 µM (inactive) | 12.4 µM (inactive) |
| CCCCCCc1ccc(C(=O)NO)cc1 | 33.8 µM (inactive) | 24.4 µM (inactive) | 75 µM (inactive) | 13.1 µM (inactive) | 44.9 µM (inactive) | 49.8 µM (inactive) | 45.3 µM (inactive) | 9.98 µM (inactive) | 30.3 µM (inactive) | 25 µM (inactive) | > 100 µM (inactive) | 6.92 µM (inactive) | 22.9 µM (inactive) | 20.4 µM (inactive) | 24.9 µM (inactive) | 45.6 µM (inactive) | 13.7 µM (inactive) | 37.8 µM (inactive) | 17.2 µM (inactive) | 28.1 µM (inactive) |
| O=C1OI(C#Cc2ccccc2)c2ccccc21 | 8.65 µM (inactive) | 5.26 µM (inactive) | 5.82 µM (inactive) | 4.39 µM (inactive) | 11.7 µM (inactive) | 2.16 µM (inactive) | 7.29 µM (inactive) | 1.46 µM (inactive) | 2.64 µM (inactive) | 3.18 µM (inactive) | 4.16 µM (inactive) | 0.355 µM (active) | 2.18 µM (inactive) | 3.93 µM (inactive) | 5.04 µM (inactive) | 4.16 µM (inactive) | 3.11 µM (inactive) | 2.76 µM (inactive) | 2.74 µM (inactive) | 2.61 µM (inactive) |
| CC(=O)NCCc1c[nH]c2ccc(Cl)cc12 | > 100 µM (inactive) | > 100 µM (inactive) | > 100 µM (inactive) | > 100 µM (inactive) | > 100 µM (inactive) | > 100 µM (inactive) | > 100 µM (inactive) | > 100 µM (inactive) | > 100 µM (inactive) | > 100 µM (inactive) | > 100 µM (inactive) | 60.4 µM (inactive) | > 100 µM (inactive) | > 100 µM (inactive) | > 100 µM (inactive) | > 100 µM (inactive) | > 100 µM (inactive) | > 100 µM (inactive) | > 100 µM (inactive) | > 100 µM (inactive) |
